# In patent US11000033B2, “Ketone or oxime compound, and herbicide” (NISSAN CHEMICAL CORPORATION, priority 2014, dated 2021):
# What was measured:
# Format in all cases: in vivo
# Lolium multiflorum Lam. [1] = test: Test Example 4: herbicidal effect by soil treatment (symbol K); settings: application herbicide amount 320 g/ha
# In short: (§1)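 Seeds were sown in sterilized diluvial soil, covered with about 1.5 cm of soil, and the soil surface was sprayed with a water-diluted emulsion of the compound at a predetermined rate. Plants grew in a greenhouse at 25° C. to 30° C.; effects were scored visually 3 weeks after application.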
# corn [2] = test: Test Example 4: effect on crop by soil treatment (symbol c); settings: application herbicide amount 320 g/ha
# In short: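 Sterilized diluvial soil, spot sowing, ~1.5 cm soil cover; greenhouse 25–30° C.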
# Cyperus difformis = test: Test Example 3: herbicidal effect by foliage application, Wagner pot (symbol E); settings: application herbicide amount 320 g/ha
# In short: (§2)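 In a shallow-flooded alluvial soil system held at 25–30 °C, plants including rice grew for 14 days and were then sprayed over the foliage with emulsion diluted to a fixed herbicide amount. Visual rating followed at 3 weeks.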
# Setaria viridis = test: Test Example 5: herbicidal effect by foliage application, plastic box (symbol G); settings: 320 g/ha, 3 weeks after application
# In short: (§3)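 Post-emergence spray; diluvial soil (sterilized), ~1.5 cm seed cover; greenhouse 25–30° C; 14-day-old plants; water-diluted emulsion at predetermined dose; visual score at 3 wk post-treatment.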
# Digitaria ciliaris = test: Test Example 4: herbicidal effect by soil treatment (symbol F); settings: application herbicide amount 320 g/ha
# In short: as §1
# Lolium multiflorum Lam. [3] = test: Test Example 5: herbicidal effect by foliage application, plastic box (symbol K); settings: 320 g/ha, 3 weeks after application
# In short: as §3
# Apera spica-venti = test: Test Example 5: herbicidal effect by foliage application, plastic box (symbol L); settings: 320 g/ha, 3 weeks after application
# In short: as §3
# corn [4] = test: Test Example 5: effect on crop by foliage application, plastic box (symbol c); settings: 320 g/ha, 3 weeks after application
# In short: (§4)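 Foliage-application test plants come from spot sowing in sterilized diluvial soil under a soil layer of about 1.5 cm, grown at 25° C. to 30° C. in a greenhouse.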
# soybean = test: Test Example 4: effect on crop by soil treatment (symbol d); settings: application herbicide amount 320 g/ha
# In short: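 Soil-treatment setup: crop and weed seeds were spot-sown into sterilized diluvial soil, then buried beneath approximately 1.5 cm of it, and the boxes were housed in a 25–30° C. greenhouse.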
# Chenopodium album = test: Test Example 5: herbicidal effect by foliage application, plastic box (symbol O); settings: 320 g/ha, 3 weeks after application
# In short: as §3
# Abutilon theophrasti [5] = test: Test Example 5: herbicidal effect by foliage application, plastic box (symbol M); settings: 320 g/ha, 3 weeks after application
# In short: as §3
# Stellaria media = test: Test Example 5: herbicidal effect by foliage application, plastic box (symbol P); settings: 320 g/ha, 3 weeks after application
# In short: as §3
# rapeseed = test: Test Example 5: effect on crop by foliage application, plastic box (symbol g); settings: 320 g/ha, 3 weeks after application
# In short: as §4
# Avena fatua = test: Test Example 5: herbicidal effect by foliage application, plastic box (symbol I); settings: 320 g/ha, 3 weeks after application
# In short: as §3
# beet = test: Test Example 5: effect on crop by foliage application, plastic box (symbol f); settings: 320 g/ha, 3 weeks after application
# In short: as §4
# Amaranthus retroflexus = test: Test Example 4: herbicidal effect by soil treatment (symbol N); settings: application herbicide amount 320 g/ha
# In short: as §1
# [6] = test system: Echinochloa crus-galli var. crus-galli; test: Test Example 4: herbicidal effect by soil treatment (symbol H); settings: application herbicide amount 320 g/ha
# In short: as §1
# Leptochloa chinensis = test: Test Example 3: herbicidal effect by foliage application, Wagner pot (symbol D); settings: application herbicide amount 320 g/ha
# In short: as §2
# wheat = test: Test Example 5: effect on crop by foliage application, plastic box (symbol e); settings: 320 g/ha, 3 weeks after application
# In short: as §4
# [7] = test system: directly sowed rice plant; test: Test Example 3: effect on crop by foliage application, Wagner pot (symbol b); settings: application herbicide amount 320 g/ha
# In short: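 Wagner pot (1/10000 are), alluvial soil, submerged 0.1–0.5 cm; sown E. crus-galli var. crus-galli, L. chinensis, C. difformis, rice; greenhouse 25–30 °C.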
# Abutilon theophrasti [8] = test: Test Example 4: herbicidal effect by soil treatment (symbol M); settings: application herbicide amount 320 g/ha
# In short: as §1
SMILES,"K: Lolium multiflorum Lam., herbicidal effect grade (Lolium multiflorum Lam. [1])","c: corn, effect on crop grade (corn [2])","herbicidal effect on E, grade 0-5 (Cyperus difformis)","G: Setaria viridis, herbicidal effect grade (Setaria viridis)","F: Digitaria ciliaris, herbicidal effect grade (Digitaria ciliaris)","K: Lolium multiflorum Lam., herbicidal effect grade (Lolium multiflorum Lam. [3])","L: Apera spica-venti, herbicidal effect grade (Apera spica-venti)","c: corn, effect on crop grade (corn [4])","d: soybean, effect on crop grade (soybean)","O: Chenopodium album, herbicidal effect grade (Chenopodium album)","M: Abutilon theophrasti, herbicidal effect grade (Abutilon theophrasti [5])","P: Stellaria media, herbicidal effect grade (Stellaria media)","g: rapeseed, effect on crop grade (rapeseed)","I: Avena fatua, herbicidal effect grade (Avena fatua)","f: beet, effect on crop grade (beet)","N: Amaranthus retroflexus, herbicidal effect grade (Amaranthus retroflexus)","H: Echinochloa crus-galli var. crus-galli, herbicidal effect grade [6]","herbicidal effect on D (Leptochloa chinensis), grade 0-5 (Leptochloa chinensis)","e: wheat, effect on crop grade (wheat)","effect on crop b (directly sowed rice plant), grade 0-5 [7]",further results
COC(=O)C(C(=O)C1CC1)C1CC(O)=C(c2c(C)cc(C)cc2C)C1=O (stereo not drawn) [2-014],4 (Herbicidal ratio of 70% or higher and lower than 90%),3 (Herbicidal ratio of 40% or higher and lower than 70%),5 (Herbicidal ratio of 90% or more (almost completely withered)),5 (Herbicidal ratio of 90% or more (almost completely withered)),5 (Herbicidal ratio of 90% or more (almost completely withered)),5 (Herbicidal ratio of 90% or more (almost completely withered)),4 (Herbicidal ratio of 70% or higher and lower than 90%),3 (Herbicidal ratio of 40% or higher and lower than 70%),0 (Herbicidal ratio of 5% or lower (almost no effect)),0 (Herbicidal ratio of 5% or lower (almost no effect)),3 (Herbicidal ratio of 40% or higher and lower than 70%),0 (Herbicidal ratio of 5% or lower (almost no effect)),4 (Herbicidal ratio of 70% or higher and lower than 90%),4 (Herbicidal ratio of 70% or higher and lower than 90%),0 (Herbicidal ratio of 5% or lower (almost no effect)),0 (Herbicidal ratio of 5% or lower (almost no effect)),5 (Herbicidal ratio of 90% or more (almost completely withered)),4 (Herbicidal ratio of 70% or higher and lower than 90%),0 (Herbicidal ratio of 5% or lower (almost no effect)),5 (Herbicidal ratio of 90% or more (almost completely withered)),"M: Abutilon theophrasti, herbicidal effect grade (Abutilon theophrasti [8]): 0 (Herbicidal ratio of 5% or lower (almost no effect))"
Cc1cc(C)c(C2=C(O)CC(CC(=O)Cc3ccccc3)C2=O)c(C)c1 (stereo not drawn) [2-015],5 (Herbicidal ratio of 90% or more (almost completely withered)),0 (Herbicidal ratio of 5% or lower (almost no effect)),0 (Herbicidal ratio of 5% or lower (almost no effect)),5 (Herbicidal ratio of 90% or more (almost completely withered)),3 (Herbicidal ratio of 40% or higher and lower than 70%),5 (Herbicidal ratio of 90% or more (almost completely withered)),3 (Herbicidal ratio of 40% or higher and lower than 70%),4 (Herbicidal ratio of 70% or higher and lower than 90%),0 (Herbicidal ratio of 5% or lower (almost no effect)),0 (Herbicidal ratio of 5% or lower (almost no effect)),1 (Herbicidal ratio of 5% or higher and lower than 20%),0 (Herbicidal ratio of 5% or lower (almost no effect)),4 (Herbicidal ratio of 70% or higher and lower than 90%),4 (Herbicidal ratio of 70% or higher and lower than 90%),0 (Herbicidal ratio of 5% or lower (almost no effect)),0 (Herbicidal ratio of 5% or lower (almost no effect)),1 (Herbicidal ratio of 5% or higher and lower than 20%),0 (Herbicidal ratio of 5% or lower (almost no effect)),0 (Herbicidal ratio of 5% or lower (almost no effect)),4 (Herbicidal ratio of 70% or higher and lower than 90%),"M: Abutilon theophrasti, herbicidal effect grade (Abutilon theophrasti [8]): 0 (Herbicidal ratio of 5% or lower (almost no effect))"
Cc1cc(C)c(C2=C(O)CC(CC(=O)C(C)C)C2=O)c(C)c1 (stereo not drawn) [2-016],5 (Herbicidal ratio of 90% or more (almost completely withered)),3 (Herbicidal ratio of 40% or higher and lower than 70%),4 (Herbicidal ratio of 70% or higher and lower than 90%),5 (Herbicidal ratio of 90% or more (almost completely withered)),5 (Herbicidal ratio of 90% or more (almost completely withered)),5 (Herbicidal ratio of 90% or more (almost completely withered)),4 (Herbicidal ratio of 70% or higher and lower than 90%),4 (Herbicidal ratio of 70% or higher and lower than 90%),0 (Herbicidal ratio of 5% or lower (almost no effect)),0 (Herbicidal ratio of 5% or lower (almost no effect)),4 (Herbicidal ratio of 70% or higher and lower than 90%),0 (Herbicidal ratio of 5% or lower (almost no effect)),4 (Herbicidal ratio of 70% or higher and lower than 90%),4 (Herbicidal ratio of 70% or higher and lower than 90%),0 (Herbicidal ratio of 5% or lower (almost no effect)),0 (Herbicidal ratio of 5% or lower (almost no effect)),5 (Herbicidal ratio of 90% or more (almost completely withered)),5 (Herbicidal ratio of 90% or more (almost completely withered)),0 (Herbicidal ratio of 5% or lower (almost no effect)),5 (Herbicidal ratio of 90% or more (almost completely withered)),"M: Abutilon theophrasti, herbicidal effect grade (Abutilon theophrasti [8]): 0 (Herbicidal ratio of 5% or lower (almost no effect))"
CCCC(=O)C(C(=O)OC)C1CC(O)=C(c2c(C)cc(C)cc2C)C1=O (stereo not drawn) [2-020],4 (Herbicidal ratio of 70% or higher and lower than 90%),3 (Herbicidal ratio of 40% or higher and lower than 70%),0 (Herbicidal ratio of 5% or lower (almost no effect)),5 (Herbicidal ratio of 90% or more (almost completely withered)),5 (Herbicidal ratio of 90% or more (almost completely withered)),5 (Herbicidal ratio of 90% or more (almost completely withered)),0 (Herbicidal ratio of 5% or lower (almost no effect)),1 (Herbicidal ratio of 5% or higher and lower than 20%),0 (Herbicidal ratio of 5% or lower (almost no effect)),0 (Herbicidal ratio of 5% or lower (almost no effect)),0 (Herbicidal ratio of 5% or lower (almost no effect)),0 (Herbicidal ratio of 5% or lower (almost no effect)),0 (Herbicidal ratio of 5% or lower (almost no effect)),0 (Herbicidal ratio of 5% or lower (almost no effect)),0 (Herbicidal ratio of 5% or lower (almost no effect)),1 (Herbicidal ratio of 5% or higher and lower than 20%),4 (Herbicidal ratio of 70% or higher and lower than 90%),2 (Herbicidal ratio of 20% or higher and lower than 40%),0 (Herbicidal ratio of 5% or lower (almost no effect)),2 (Herbicidal ratio of 20% or higher and lower than 40%),"M: Abutilon theophrasti, herbicidal effect grade (Abutilon theophrasti [8]): 0 (Herbicidal ratio of 5% or lower (almost no effect))"
